Measurements as given in PubChem BioAssay (NCI).
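Step 1: Grow cells in 96-well plates. Step 2: Expose to compound for 48 hours at 5 concentrations. Step 3: Interpolate endpoints linearly; if unreached, use highest concentration. GI50 = concentration required for 50% inhibition of growth. TGI: concentration producing complete growth inhibition.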

How the values were obtained:
Assay in all cases: NCI anticancer screen, dose series, 48 h
[1] = system: SF-539 CNS
[2] = system: UO-31 renal
[3] = system: SF-268 CNS
[4] = system: HCT-15 colon
[5] = system: NCI-H460 lung
[6] = system: A549 NSCLC
[7] = system: MALME-3M melanoma
[8] = system: DU-145 prostate
[9] = system: PC-3 prostate
[10] = system: BT-549 breast

Row | SMILES | TGI [1] [µM] | TGI [2] [µM] | GI50 [3] [µM] | TGI [3] [µM] | TGI [4] [µM] | TGI [5] [µM] | TGI [6] [µM] | TGI [7] [µM] | TGI [8] [µM] | TGI [9] [µM] | TGI [10] [µM] | GI50 [1] [µM] | GI50 [2] [µM] | GI50 [8] [µM] | GI50 [9] [µM] | GI50 [5] [µM] | GI50 [7] [µM] | GI50 [4] [µM] | GI50 [6] [µM] | GI50 [10] [µM]
1 | C=C(NC(=O)C(=C)NC(=O)c1csc(C2=NC3c4csc(n4)C4NC(=O)c5csc(n5)C(C(C)(O)C(C)O)NC(=O)C5CSC(=N5)/C(=C/C)NC(=O)C(C(C)O)NC(=O)c5csc(n5)C3(CC2)NC(=O)C(C)NC(=O)C(=C)NC(=O)C(C)NC(=O)C(C(C)CC)NC2C=Cc3c(C(C)O)cc(nc3C2O)C(=O)OC4C)n1)C(N)=O (centres undefined) | 4.13 | > 100 | 4.74 | > 100 | > 34 | 4.39 | 58.4 | 3.99 | – | – | – | – | – | – | – | – | – | – | – | –
2 | CC(C)=CCc1[nH]c2ccccc2c1C1=C(O)C(=O)C(c2c(CC=C(C)C)[nH]c3ccccc23)=C(O)C1=O | – | 3.14 | – | 7.11 | 3.48 | 3.87 | 11.2 | 4.5 | 10.9 | 4.72 | 1.59 | – | – | – | – | – | – | – | – | –
3 | C=C1C(=O)O[C@@H]2[C@H](O)[C@@H](C)[C@@H]3C=CC(=O)[C@@]3(C)[C@@H](OC(=O)/C(C)=C/C)[C@H]12 | 1.96 | 10.1 | – | 3.84 | 1.06 | 1.93 | 13.4 | 1.49 | – | – | – | – | – | – | – | – | – | – | – | –
4 | COC1=CC2(CC(OC)=C1OC)OC21COc2ccccc2C1=O (centres undefined) | > 100 | > 100 | – | > 100 | > 100 | > 100 | > 100 | > 100 | – | > 100 | > 100 | – | – | – | – | – | – | – | – | –
5 | CC(C)(C)OC(=O)CN1CCNCCN(CC(=O)OC(C)(C)C)CCNCC1 | > 100 | > 100 | – | – | > 100 | > 100 | > 100 | – | > 100 | > 100 | > 100 | – | – | – | – | – | – | – | – | –
6 | COc1c(-c2nc3nc(N4CCN(C)CC4)ccc3[nH]2)cc(OC)c2c1nc(COC(C)=O)n2C | – | > 100 | – | > 100 | > 100 | – | > 100 | > 100 | > 100 | > 100 | > 100 | – | – | – | – | – | – | – | – | –
7 | O=C(NC(=O)c1cc(-c2ccccc2)n[nH]1)c1ccccc1 | > 100 | > 100 | – | > 100 | > 100 | > 100 | > 100 | – | > 100 | > 100 | > 100 | – | – | – | – | – | – | – | – | –
8 | C/C=C1\CN(C(=O)OC(C)(C)C)C1C(=O)OC(C)(C)C (centres undefined) | > 100 | > 100 | – | > 100 | > 100 | > 100 | > 100 | > 100 | – | > 100 | > 100 | – | – | – | – | – | – | – | – | –
9 | CCOC(=O)Nc1ccc2c(c1)c(CCCCCCc1nc3ccccc3c3ccc(NC(=O)OCC)cc13)nc1ccccc12 | 25 | > 100 | – | 74.9 | > 100 | > 100 | > 100 | – | > 100 | > 100 | – | – | – | – | – | – | – | – | – | –
10 | CC(C)=CCC/C(C)=C/COc1c2ccoc2cc2oc(=O)ccc12 | > 100 | 59.7 | – | > 100 | > 100 | > 100 | > 100 | 99.6 | – | > 100 | > 100 | – | – | – | – | – | – | – | – | –
11 | CCN(CC)CCN1C(=O)c2c(c3c4ccccc4[nH]c3c3ccc4ccccc4c23)C1=O | 3.08 | 2.66 | – | – | – | 2.44 | – | 3.46 | 3.06 | 3.25 | – | 1.7 | 1.36 | 1.65 | 1.44 | 1.08 | 1.79 | – | – | –
12 | COc1c2c(c3ccccc3c1O)C1C=CC2C1 (centres undefined) | 29 | 17.6 | – | 33.7 | 22 | 34 | 36.6 | 18.8 | – | – | – | – | – | – | – | – | – | – | – | –
13 | O=C(Nc1cccc([N+](=O)[O-])c1)c1n[nH]n(-c2cccc([N+](=O)[O-])c2)c1=O | > 100 | > 100 | – | > 100 | – | – | > 100 | > 100 | > 100 | > 100 | – | – | – | – | – | – | – | – | – | –
14 | Cn1ncc2c(Cl)ncnc21 | > 100 | > 100 | – | > 100 | > 100 | > 100 | > 100 | – | > 100 | > 100 | > 100 | – | – | – | – | – | – | – | – | –
15 | Cc1csc2c1-n1cccc1C2=O | – | > 100 | – | > 100 | > 100 | > 100 | > 100 | > 100 | > 100 | > 100 | > 100 | – | – | – | – | – | – | – | – | –
16 | C=C1C(O)C[C@H](OC(C)=O)[C@]2(C)C1C(OC(C)=O)[C@]1(C(C)(C)O)CC(O)C(C)=C1[C@@H](OC(=O)c1ccccc1)C2OC(C)=O (some centres undefined) | > 10 | > 10 | – | > 10 | > 10 | > 10 | > 10 | – | > 10 | > 10 | – | – | – | – | – | – | – | – | – | –
17 | CC(=O)Nc1ccc2[nH]c(C(=O)N3CC(CCl)c4c3cc([N+](=O)[O-])c3ccccc43)cc2c1 (centres undefined) | – | – | – | > 57.1 | > 100 | > 100 | 1.15 | – | > 100 | > 100 | > 100 | – | – | – | – | – | – | – | – | –
18 | O=c1oc2ccccc2cc1-c1cn2c(n1)sc1ccccc12 | > 100 | > 100 | – | > 100 | > 100 | > 100 | > 100 | – | > 100 | > 100 | > 100 | – | – | – | – | – | – | – | – | –
19 | Cn1cc(-c2ccc3cc(-c4ccc(CC(=O)Nc5cc(C(C)(C)C)on5)cc4)cnc3c2)cn1 | 14.4 | 3.14 | 1.96 | 14.8 | 4.87 | 2.55 | > 100 | – | 10.2 | 20.8 | 31.8 | 0.339 | 0.382 | 1.05 | 2.4 | 0.84 | – | 0.466 | 1.72 | 2.08
20 | CC1(C)CCC(C)(C)C1C(=O)NC(O)C(=O)O (centres undefined) | > 100 | > 100 | – | > 100 | > 100 | > 100 | > 100 | – | > 100 | > 100 | – | – | – | – | – | – | – | – | – | –
21 | Cc1cccc(N2C(=O)C3c4[nH]c5ccccc5c4C4CCC(C(C)(C)C)CC4C3C2=O)c1 (centres undefined) | – | 28.6 | – | 13.7 | > 100 | 19 | 22.3 | 28 | 33.4 | 24.8 | 33.5 | – | – | – | – | – | – | – | – | –
22 | COc1ccc([C@@H]2CC(=O)N2)cc1 | > 100 | > 100 | – | > 100 | > 100 | > 100 | > 100 | > 100 | – | – | – | – | – | – | – | – | – | – | – | –
